Key:
[1] = system: MDA-MB-231 solid tumor xenografts; assay: Effect of FITC-Folate dose on anti-FITC CAR T cell response (Example 10); format: in vivo, NSG mice
Source text: Five experimental groups: (1) anti-FITC CAR T cell with PBS; (2) anti-FITC CAR T cell with FITC-Folate (5 nmoles/kg); (3) anti-FITC CAR T cell with FITC-Folate (50 nmoles/kg); (4) anti-FITC CAR T cell with FITC-Folate (500 nmoles/kg); (5) anti-FITC CAR T cell with FITC-Folate (2500 nmoles/kg) were designed to identify the relationship between anti-FITC CAR T cell response and the dose of FITC-ligands. MDA-MB-231 cells were subcutaneously injected into the shoulders of NSG mice (Jackson Laboratory) to establish solid tumor xenografts. When tumor volume reached around 50-100 mm^3, anti-FITC CAR T cells (15×10^6 cells) and different doses of FITC-Folate were intravenously introduced into the mice.
To monitor anti-FITC CAR T cell activation with the different doses of FITC-Folate, IFN-gamma concentration was measured in mouse blood by a bead-based immunoassay (Legendplex kit from Biolegend). Tumor volume was also measured. General toxicity for each treatment group was monitored by measuring weight loss.

[2] = system: anti-FITC CAR T cells with MDA-MB-231; assay: In vitro interferon-γ assay (Example 22); format: cell-based, Human
Experimental: In order to study the relationship between bridge dose and anti-FITC CAR T cell activation, a folate receptor positive cancer cell line (MDA-MB-231) was seeded at a density of 10^4 cells/100 ul of media in each well of a 96-well plate and the cells were grown overnight. Anti-FITC CAR T cells (5×10^4 cells) were then added into each well containing cancer cells with various concentrations of Folate-FITC (from 0.001 nM to 100 μM) for 6-24 hours. After co-incubation, the plates containing anti-FITC CAR T cells and cancer cells were centrifuged for 10 min at 350×g to remove cells and cellular debris, and 50 ul of supernatant was assayed by ELISA (Human IFN-γ ELISA kit from Biolegend) to detect IFN-γ production by anti-FITC CAR T cells.

[3] = system: naïve mice without tumors; assay: FITC-CAR-T proliferation, toxicity and cytokines in naïve mice (Example 37); format: in vivo
Experimental: The evaluation of FITC-CAR-T proliferation and related toxicity in both naïve mice and mice bearing FR+ tumor xenografts was tested. To evaluate whether FITC-CAR-T proliferation in vivo is dependent on the co-existence of the bridge (e.g. EC17) and the tumor antigen (e.g. folate receptor), FITC-CAR-T proliferation in vivo was compared in naïve mice and mice bearing FR+ tumor xenografts, either with or without EC17. 5-8 million CAR-T cells (as indicated in FIGS. 42 and 43) were administered (i.v.) into naïve mice without tumors and mice bearing FR+ tumor xenografts (80-200 mm3). 500 nmol/kg EC17 was dosed 4 hours before and three times per week post CAR-T administration, if desired. Mice were monitored for body weight changes and CAR-T cell count in blood circulation; some mice were also euthanized weekly to evaluate organs. […] CAR-T cell count in blood samples was also compared to evaluate CAR-T proliferation. […] Since the enlargement of spleen size is another indicator for CAR-T proliferation in vivo, spleen size was also measured as shown in FIG. 43B. […]
Cytokine levels including IFN were measured using LEGENDplex human cytokine panel kits (BioLegend, San Diego, Calif.) according to the manufacturer's instructions. Plasma samples were diluted with Assay Buffer, and then mixed with Capture beads immobilized with the antibody directed to the analyzed cytokine. After 2 hours incubation at room temperature with shaking, biotinylated Detection antibody to the analyzed cytokine was added and incubated for one more hour at room temperature with shaking. Phycoerythrin (PE) labeled streptavidin was then added to bind with biotin on the Detection antibody, and FACS was used to read the signal of PE on the binding complex (capture antibody-cytokine-detection antibody). The intensity of PE is proportional to the level of analyzed cytokine. A series of cytokine solutions with known concentrations were measured at the same time and used as standards to quantitate the cytokine levels in the analyzed samples.

MDA-MB-231 = assay: CAR-T and EC17 therapy-related toxicity versus tumor size (Example 46); format: in vivo, NSG mice
Experimental: To explore whether CAR-T therapy related toxicity is dependent on tumor load, NSG mice were s.c. implanted with MDA-MB-231. Ten mice with different tumor sizes ranging between 150-900 mm^3 were selected for this study. For the CAR-T cells, 10.5 million GFP+FITC-CAR-T cells were i.v. injected followed by 500 nmol/kg EC17 administration 48 hours later (FIG. 71A). Body weights of mice were compared between before CAR-T injection and 18 hours post EC17 administration. […] With higher tumor burden, mice lost more body weight after CAR-T and EC17 treatment. […] Plasma samples were separated immediately and stored at −20° C. until the analysis of cytokine levels using a human cytokine detection kit (Biolegend). […] With higher tumor burden, more IL-6 was produced after CAR-T and EC17 treatment. IL-6 has been widely reported to be the predicting biomarker for severe cytokine release syndrome in human patients with liquid tumors when they are treated with conventional CAR-T therapy.

## Nc1nc2ncc(CNc3ccc(C(=O)NC(CCC(=O)NCCNC(=S)Nc4ccc(-c5c6ccc(=O)cc-6oc6cc(O)ccc56)c(C(=O)O)c4)C(=O)O)cc3)nc2c(=O)[nH]1 (centres unmarked) [EC17, FITC-Folate]
[1]; 5, 50, 500, 2500 nmoles/kg, 15×10^6 CAR T cells
  concentration of IFN-gamma versus FITC-Folate dose: bell-shaped dose-response curve
[1]; 15×10^6 CAR T cells
  dose with maximum toxicity (lowest survival rate) and highest anti-tumor efficacy: 500 nmol/kg
[1]; FITC-Folate 2500 nmole/kg
  anti-tumor efficacy of CAR T cells: started to decrease
[2]; 0.001 nM to 100 μM, 6-24 hours
  optimal bridge dose (highest IFN-γ level): 10 nM
[2]; 10 μM and 100 μM
  IFN-γ production: not detected
[3]; 500 nmol/kg three times per week
  cytokine production (CAR-T activity): not active in naïve mice
[3]; 500 nmol/kg three times per week or no EC17
  body weight: did not show any apparent body weight loss
[3]; 5 or 8 million FITC-CAR-T cells
  FITC-CAR-T proliferation: did not proliferate in naïve mice
MDA-MB-231; 18 hours after 500 nmol/kg, 10.5 million CAR-T
  cytokine release syndrome grade: 2 grade
MDA-MB-231; tumors 150-900 mm^3
  body weight changes: tumor size dependent
  production of IL-6: tumor size dependent
